Measurements: PubChem BioAssay AID1361 (SRMLSC, 2008)
Activity calls are given as the source filed them. How the calls were made is not given here.

Test: mitochondrial fusion inhibitors, confirmation, cell-based, chemical genetic, wild-type and mutant (AID 1361)
Settings: Cell-based mitochondrial fusion phenotype, imaging
[1] = mutant cells, measured here: mutant cell line IC50

| SMILES | IC50 (WT cells) | IC50 [1] |
| --- | --- | --- |
| O=C(CCCCCn1c(=S)[nH]c2cc3c(cc2c1=O)OCO3)N1CCN(C(=O)c2ccco2)CC1 | > 25 µM (inactive) | > 25 µM |
| Cc1nc(C)c(-c2csc(Nc3cccc(O)c3)n2)s1 | > 25 µM (inactive) | > 25 µM |
| COCCn1c(SCc2cc(C(C)=O)ccc2OC)nc2cc(Cl)ccc2c1=O | 8.09 µM | > 25 µM |
| CN(C)c1ncc(S(=O)(=O)c2ccc(Cl)cc2)c(-c2ccc(Cl)cc2Cl)n1 | 9.56 µM | 15.3 µM |
| CC(C)CN(C(=O)c1nn(C)c(=O)c2ccccc12)c1nc2ccccc2s1 | 21.9 µM | > 25 µM |
| S=C(Nc1ccc(Oc2ccccc2)cc1)NC1CCCCCC1 | 5.19 µM | 10 µM |
| CCC[C@@H]1C[C@@]1(CCC)[C@@H](NP(=O)(c1ccccc1)c1ccccc1)c1ccc(C(=O)OC)cc1 | 12.6 µM | > 25 µM |
| Nc1ccc2nc(CN3CCOCC3)[nH]c2c1 | > 25 µM (inactive) | > 25 µM |
| CCC1(C)Cc2c(sc3[nH]c(=S)n(Cc4ccccc4)c(=O)c23)CO1 (stereo not drawn) | 21.2 µM | > 25 µM |
| COc1cccc(OC)c1OCCCCN1CCCC1 | > 25 µM (inactive) | > 25 µM |
| Cc1cc(Oc2ccc(C(C)(C)C)cc2)nc(N2CCOCC2)n1 | 19.9 µM | > 25 µM |
| COC(=O)c1c(NC(=O)CN2CCC3(O)CCCCC3C2c2ccc(OC)cc2OC)sc(C)c1C (stereo not drawn) | 14.9 µM | > 25 µM |
| Cc1ccccc1NC(=O)CNc1ccccc1N1CCCCC1 | > 25 µM (inactive) | > 25 µM |
| O=C1CCCCC1C(Nc1ccc(Br)cc1)c1ccccc1 (stereo not drawn) | 20.5 µM | > 25 µM |
| Cc1ccc(S(=O)(=O)c2nc(Nc3ccccc3)sc2Cl)cc1 | 14.1 µM | > 25 µM |
| CCOc1ccc(NC(=S)NN(C)C(=S)Nc2ccc(OCC)cc2)cc1 | > 25 µM (inactive) | > 25 µM |
| O=C(CCn1nc(-c2ccccc2)c2ccccc2c1=O)NCC1CCCO1 (stereo not drawn) | > 25 µM (inactive) | > 25 µM |
| Clc1cccc(N=C2NN=C(c3ccc4c(c3)OCCO4)CS2)c1 | 15.9 µM | > 25 µM |
| C=CCn1c(COc2ccccc2-c2ccccc2)nnc1SCC(=O)NC(=O)NCc1ccco1 | > 25 µM (inactive) | > 25 µM |
| c1ccc2c(c1)sc1nnnn12 | > 25 µM (inactive) | > 25 µM |

| SMILES | IC50 (WT cells) | IC50 [1] |
| --- | --- | --- |
| CC(C)Oc1ccc(C(=O)NC2(C(F)(F)F)NC(=O)N(CCCc3ccccc3)C2=O)cc1 (stereo not drawn) | 20.2 µM | > 25 µM |
| Cc1ccc(-c2nnc(SCC(=O)N3CCOCC3)nc2-c2ccc(C)cc2)cc1 | > 25 µM (inactive) | > 25 µM |
| O/N=C(\c1ccc(Cl)cc1Cl)c1ncc(C(F)(F)F)cc1Cl | 20.9 µM | > 25 µM |
| CCOC(=O)c1c(-c2cccs2)csc1NC(=O)C(C)(C)C | 24.5 µM | > 25 µM |
| CC1CCCN(c2nc3c(c(=O)[nH]c(=O)n3C)n2Cc2ccccc2Cl)C1 (stereo not drawn) | 17.4 µM | > 25 µM |
| CCCCC(=O)NC(c1ccc([N+](=O)[O-])cc1)c1c(O)ccc2ccccc12 (stereo not drawn) | > 25 µM (inactive) | > 25 µM |
| Cc1ccccc1S(=O)(=O)c1c(C)cc(C)n(CC(C)C)c1=O | > 25 µM (inactive) | > 25 µM |
| CC1CC2=C(NC(=S)NC2c2cccc(F)c2)/C(=C/c2cccc(F)c2)C1 (stereo not drawn) | 8.15 µM | > 25 µM |
| Cn1c(Cc2ccccc2)nnc1SCC(=O)c1ccc(Br)s1 | > 25 µM (inactive) | > 12.5 µM |
| O=C1c2ccccc2C(=O)N1CCN1CCCCC1 | > 25 µM (inactive) | > 25 µM |
| COc1ccccc1-n1cnc2sc(-c3ccccc3)cc2c1=O | > 25 µM (inactive) | > 25 µM |
| COC(=O)[C@H](Cc1ccccc1)NC(=O)O[C@H]1C(=O)c2ccc(OC)cc2O[C@@H]1c1ccc2c(c1)OCO2 | 12.9 µM | > 25 µM |
| CCc1nn(C(C)C(=O)NCCN2CCN(c3cccc(C)c3C)CC2)c(=O)c2cc3occc3n12 (stereo not drawn) | > 25 µM (inactive) | > 25 µM |
| CCc1cccc(CC)c1NC(=S)NCCc1c(C)[nH]c2ccc(C)cc12 | 9.59 µM | > 25 µM |
| Cc1ccc2c(c1)C1CN(C)CCC1N2C(=O)c1cn(-c2ccccc2)nc1-c1ccccc1 (stereo not drawn) | 23.6 µM | > 25 µM |
| Cc1ccc(C(=O)NCc2ccc(N3CCN(C(=O)OC(C)(C)C)CC3)cc2)cc1 | > 25 µM (inactive) | > 25 µM |
| Cc1cc(NC(=O)COC(=O)C(Nc2ccc(C(F)(F)F)cc2Cl)C(C)C)no1 (stereo not drawn) | 13.8 µM | 24.2 µM |
| O=C(c1ccc(C(F)(F)F)cc1)N1CCC(=O)N(C(COCc2ccc(Cl)cc2)Cc2ccccc2)CC1 (stereo not drawn) | 19.1 µM | > 25 µM |
| O=c1[nH][nH]c(-c2ccccc2)c1C=Nc1ccccc1 | > 25 µM (inactive) | > 25 µM |
| Fc1ccc(Nc2nc(N/N=C/c3ccco3)nc(N3CCCCC3)n2)cc1 | 19.3 µM | > 25 µM |

| SMILES | IC50 (WT cells) | IC50 [1] |
| --- | --- | --- |
| CC(=O)N(C)c1ccc(OCC(O)Cn2c3ccc(Cl)cc3c3cc(Cl)ccc32)cc1 (stereo not drawn) | 4.12 µM | > 25 µM |
| CCCCC(=O)NC(=S)Nc1ccccc1N1CCCCC1 | 19.8 µM | > 25 µM |
| COC(=O)Cc1ccc(N(Cc2ccccc2F)S(=O)(=O)c2ccc(C)cc2)cc1 | 3.34 µM | > 25 µM |
| Cc1ccc2c(CSc3nnc(C4CC4)n3N)cc(=O)oc2c1C | > 25 µM (inactive) | > 25 µM |
| c1ccc2c(c1)CCN(c1ncnc3c1[nH]c1ccccc13)C2 | > 25 µM (inactive) | > 25 µM |
| Cc1nnc(NC(=O)c2sc3nc(-c4cccs4)cc(C(F)(F)F)c3c2N)s1 | > 25 µM (inactive) | > 25 µM |
| Cc1cccc(Cn2nc(-n3cccc3)c3c(C)cc(C)nc32)c1 | > 25 µM (inactive) | > 25 µM |
| CCC1Oc2ccc(C)cc2N(CC(=O)NCCCN2CCCCC2CC)C1=O (stereo not drawn) | > 25 µM (inactive) | > 25 µM |
| O=C(/C=C/Nc1cccc(C(F)(F)F)c1)C(F)(F)F | > 25 µM (inactive) | > 25 µM |
| N#CC(C#N)=C1C=CC=CN1/C(=C\c1ccccc1Cl)C(=O)c1ccccc1 | 18.6 µM | > 25 µM |
| Cc1sc(NC(=O)c2ccccc2)c(C(c2ccc(Cl)cc2)N2CCN(CCO)CC2)c1C (stereo not drawn) | 13.5 µM | > 25 µM |
| Cc1cccc(COCC(CC(C)C)N2CCN(C(=O)c3ccc(C(C)(C)C)cc3)CCC2=O)c1 (stereo not drawn) | 14.7 µM | > 25 µM |
| FC(F)(F)c1cnc(Sc2nc3nccc(-c4ccc(Cl)cc4)n3n2)c(Cl)c1 | > 25 µM (inactive) | > 25 µM |
| CCN1CCc2nc(NC(=O)c3ccccc3)sc2C1 | > 25 µM (inactive) | > 12.5 µM |
| Cc1[nH][nH]c(=O)c1C(c1c(C)[nH][nH]c1=O)c1cn(Cc2ccccc2Cl)c2ccccc12 | > 25 µM (inactive) | > 25 µM |
| O=C(Nc1cc(Cl)ccc1Oc1ccccc1)c1ccc(F)cc1 | 22.7 µM | > 25 µM |
| CC/C(=C(/CC)c1ccc(O)cc1)c1ccc(O)cc1 | 23.8 µM | > 25 µM |
| CCC(C)c1ccc(NC(=S)Nc2ccc(OC)c(OC)c2)cc1 (stereo not drawn) | > 25 µM (inactive) | > 25 µM |
| CN1C(=S)SC(C)(C)C1(C)NO (stereo not drawn) | > 25 µM (inactive) | > 25 µM |
